Measured values from patent US8148391B2 (Cephalon, Inc., priority 2006, dated 2012).
pIC50: −log10 of the molar value. Like-named read-outs stand apart in the source and are kept apart here. Values belong to the compound of their own block, whether it stands above or below them.

Assays:
[1] = target: T1, baculovirus-expressed ALK (Homo sapiens, UniProt Q9UM73); assay: ALK Kinase Assay (ELISA-type, time-resolved fluorescence); format: biochemical
T1 construct: host or cells: baculovirus expression system
Procedure, shortened: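 Wells were coated with phospholipase C-γ at 10 μg/mL in Tris-buffered saline. Adding 30 ng/ml enzyme started the reaction, which ran at 37° C for 15 minutes before Eu-N1 PT66 antibody detection. Percent inhibition versus log10 concentration gave IC50 by variable-slope fit.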

[2] = target: T2, c-Met (cytoplasmic domain) (Homo sapiens, UniProt P08581); assay: c-Met Kinase Assay (same methods as for ALK, with modifications); format: biochemical
T2 construct: 10 ng/mL c-Met (cytoplasmic domain, Invitrogen Corporation #PV3143); purchased Invitrogen Corporation PV3143
Procedure, shortened: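 Steps: coat wells with PLC-γ (10 μg/mL, Tris-buffered saline); add 10 ng/mL c-Met cytoplasmic domain to initiate; incubate 15 min, 37° C; detect phosphoproduct via Eu-N1 PT66 antibody.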

[3] = 1 μM ATP (Km level), read-out: ALK Activity (ALK Kinase Inhibition, IC50)
[4] = 1 μM ATP (Km level), read-out: cMet Activity (c-Met Kinase Inhibition, IC50)
[5] = ALK kinase inhibition, 1 μM ATP (Km level), read-out: ALK Activity
[6] = c-Met kinase inhibition, 1 μM ATP (Km level), read-out: cMet Activity
[7] = ALK kinase inhibition, 1 μM ATP, read-out: ALK Activity
[8] = c-Met kinase inhibition, 1 μM ATP, read-out: cMet Activity
[9] = 1 μM ATP (Km level), 30 ng/ml ALK, 37° C., 15 minutes, read-out: ALK Activity (ALK kinase inhibition, IC50 class)
[10] = 1 μM ATP (Km level), 10 ng/mL c-Met, read-out: cMet Activity (c-Met kinase inhibition, IC50 class)

T1 sequence (Q9UM73 19-1620): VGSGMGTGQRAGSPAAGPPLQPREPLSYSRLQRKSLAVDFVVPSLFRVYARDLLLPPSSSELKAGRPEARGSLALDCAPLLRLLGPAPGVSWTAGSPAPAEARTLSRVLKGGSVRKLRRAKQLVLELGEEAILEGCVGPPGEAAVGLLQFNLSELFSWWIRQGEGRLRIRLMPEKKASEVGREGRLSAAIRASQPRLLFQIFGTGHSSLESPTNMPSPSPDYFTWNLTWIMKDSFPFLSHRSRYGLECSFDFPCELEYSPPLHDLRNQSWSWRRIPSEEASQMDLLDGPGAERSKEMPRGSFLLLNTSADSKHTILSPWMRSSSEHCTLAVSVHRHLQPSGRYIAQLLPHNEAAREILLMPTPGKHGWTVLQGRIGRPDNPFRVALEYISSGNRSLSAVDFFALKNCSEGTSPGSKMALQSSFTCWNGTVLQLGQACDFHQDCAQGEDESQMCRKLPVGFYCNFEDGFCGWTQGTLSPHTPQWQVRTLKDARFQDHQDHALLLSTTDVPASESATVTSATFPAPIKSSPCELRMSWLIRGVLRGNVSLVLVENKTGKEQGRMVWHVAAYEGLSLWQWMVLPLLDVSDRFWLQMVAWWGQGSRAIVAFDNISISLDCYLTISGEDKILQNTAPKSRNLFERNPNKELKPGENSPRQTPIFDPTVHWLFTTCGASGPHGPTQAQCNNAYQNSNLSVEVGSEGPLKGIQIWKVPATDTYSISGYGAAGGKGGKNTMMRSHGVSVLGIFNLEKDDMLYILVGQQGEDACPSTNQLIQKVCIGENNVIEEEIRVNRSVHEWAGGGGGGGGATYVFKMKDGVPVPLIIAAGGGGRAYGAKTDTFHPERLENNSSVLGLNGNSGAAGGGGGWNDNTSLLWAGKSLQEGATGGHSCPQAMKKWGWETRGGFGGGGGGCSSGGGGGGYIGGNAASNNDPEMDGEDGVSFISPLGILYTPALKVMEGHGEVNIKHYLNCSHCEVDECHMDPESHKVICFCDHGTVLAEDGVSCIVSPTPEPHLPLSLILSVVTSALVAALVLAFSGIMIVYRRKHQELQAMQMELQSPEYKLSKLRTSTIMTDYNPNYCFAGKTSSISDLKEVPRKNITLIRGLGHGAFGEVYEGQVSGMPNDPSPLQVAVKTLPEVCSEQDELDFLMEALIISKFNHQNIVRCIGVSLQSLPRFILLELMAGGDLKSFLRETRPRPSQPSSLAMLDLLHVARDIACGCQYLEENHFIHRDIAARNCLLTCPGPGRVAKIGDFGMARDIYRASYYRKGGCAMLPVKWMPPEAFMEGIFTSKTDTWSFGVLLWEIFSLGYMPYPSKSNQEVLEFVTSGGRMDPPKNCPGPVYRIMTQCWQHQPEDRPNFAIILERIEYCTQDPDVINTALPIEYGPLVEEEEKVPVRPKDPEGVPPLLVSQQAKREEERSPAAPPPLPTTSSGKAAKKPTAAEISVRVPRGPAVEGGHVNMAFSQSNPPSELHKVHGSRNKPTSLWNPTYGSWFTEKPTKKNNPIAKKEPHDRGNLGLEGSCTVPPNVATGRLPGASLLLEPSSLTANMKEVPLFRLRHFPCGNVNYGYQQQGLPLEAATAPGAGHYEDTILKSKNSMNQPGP
T2 sequence (P08581 956-1390 limits assumed): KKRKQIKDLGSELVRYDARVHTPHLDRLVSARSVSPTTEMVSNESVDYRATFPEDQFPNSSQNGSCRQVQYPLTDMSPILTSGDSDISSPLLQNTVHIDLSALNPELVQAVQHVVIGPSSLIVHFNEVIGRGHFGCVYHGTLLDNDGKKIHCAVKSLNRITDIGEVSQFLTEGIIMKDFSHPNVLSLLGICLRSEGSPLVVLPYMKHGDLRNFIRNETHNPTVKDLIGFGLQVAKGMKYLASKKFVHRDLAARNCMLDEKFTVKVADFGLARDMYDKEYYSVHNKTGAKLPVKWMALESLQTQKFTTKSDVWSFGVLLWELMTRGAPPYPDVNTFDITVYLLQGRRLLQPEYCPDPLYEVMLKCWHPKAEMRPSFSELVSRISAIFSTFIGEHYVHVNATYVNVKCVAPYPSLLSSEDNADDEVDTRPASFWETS

Structure (SMILES): COCCN1CCc2ccc(Nc3ncc(Cl)c(Nc4ccccc4-c4ncccc4C)n3)cc2CC1 [Example 972, 5-Chloro-N*2*-[3-(2-methoxy-ethyl)-2,3,4,5-tetrahydro-1H-benzo[d]azepin-7-yl]-N*4*-[2-(3-methyl-pyridin-2-yl)-phenyl]-pyrimidine-2,4-diamine]
- pIC50 [1, 3]: > 7.00
- pIC50 [2, 4]: 6.00 to 7.00

Structure (SMILES): NC(=O)C1C2CCC(C2)C1Nc1nc(Nc2ccc3c(c2)CCN(CC(O)C(F)(F)F)CC3)ncc1Cl [Example 331, (2-exo,3-exo)-3-{5-Chloro-2-[3-((S)-3,3,3-trifluoro-2-hydroxy-propyl)-2,3,4,5-tetrahydro-1H-benzo[d]azepin-7-ylamino]-pyrimidin-4-ylamino}-bicyclo[2.2.1]heptane-2-carboxylic acid amide]
- pIC50 [1, 5]: > 7.00
- pIC50 [2, 6]: 6.00 to 7.00

Structure (SMILES): CNC(=O)c1scc(C)c1Nc1nc(Nc2ccc3c(c2)NC(=O)CN(C(=O)C(F)(F)F)C3)ncc1Cl [Example 1866, 3-{5-Chloro-2-[2-oxo-4-(2,2,2-trifluoro-acetyl)-2,3,4,5-tetrahydro-1H-benzo[e][1,4]diazepin-8-ylamino]-pyrimidin-4-ylamino}-4-methyl-thiophene-2-carboxylic acid methylamide]
- pIC50 [1, 7]: 5.00 to 6.00
- pIC50 [2, 8]: 6.00 to 7.00

Structure (SMILES): O=C1Cc2ccc(Nc3ncc(Cl)c(Nc4ccccc4-n4cccn4)n3)cc2CCN1 [Example 1813, 7-[5-Chloro-4-(2-pyrazol-1-yl-phenylamino)-pyrimidin-2-ylamino]-1,3,4,5-tetrahydro-benzo[d]azepin-2-one]
- pIC50 [1, 7]: 5.00 to 6.00
- pIC50 [2, 8]: > 7.00

Structure (SMILES): COc1cc2c(cc1Nc1ncc(Cl)c(Nc3ccc(N4CCOCC4)cc3OC)n1)CCN(CC(=O)OC(C)C)CC2 [Example 800, {7-[5-Chloro-4-(2-methoxy-4-morpholin-4-yl-phenylamino)-pyrimidin-2-ylamino]-8-methoxy-1,2,4,5-tetrahydro-benzo[d]azepin-3-yl}-acetic acid isopropyl ester]
- pIC50 [1, 3]: > 7.00
- pIC50 [2, 4]: < 5.00

Structure (SMILES): CN1CCc2ccc(Nc3ncc(Cl)c(Nc4ccccc4-c4cc[nH]n4)n3)cc2CC1=O [Example 1825, 8-{5-Chloro-4-[2-(1H-pyrazol-3-yl)-phenylamino]-pyrimidin-2-ylamino}-3-methyl-1,3,4,5-tetrahydro-benzo[d]azepin-2-one]
- pIC50 [1, 7]: < 5.00
- pIC50 [2, 8]: < 5.00

Structure (SMILES): CNC(=O)c1cc(-c2ccc(C#N)cc2)cc(F)c1Nc1nc(Nc2ccc3c(c2)NC(=O)CCC3)ncc1Cl [Example 1420, 4-[5-Chloro-2-(2-oxo-2,3,4,5-tetrahydro-1H-benzo[b]azepin-8-ylamino)-pyrimidin-4-ylamino]-4′-cyano-5-fluoro-biphenyl-3-carboxylic acid methyl amide]
- pIC50 [1, 9]: > 7.00
- pIC50 [2, 10]: 6.00 to 7.00

Structure (SMILES): CCN1C(=O)CCCc2c1ccc(Nc1ncc(Cl)c(N[C@@H]3CCCC[C@H]3N(C)S(C)(=O)=O)n1)c2OC [Example 1679, N-{(1R,2R)-2-[5-Chloro-2-(1-ethyl-6-methoxy-2-oxo-2,3,4,5-tetrahydro-1H-benzo[b]azepin-7-ylamino)-pyrimidin-4-ylamino]-cyclohexyl}-N-methyl-methanesulfonamide]
- pIC50 [1, 7]: 6.00 to 7.00
- pIC50 [2, 8]: < 5.00

Structure (SMILES): COc1c(Nc2ncc(Cl)c(Nc3ccccc3S(=O)(=O)C(C)C)n2)ccc2c1CCC(N1CCN(C)CC1)CC2 (racemic) [Example 914, 5-Chloro-N*2*-[1-methoxy-7-(4-methyl-piperazin-1-yl)-6,7,8,9-tetrahydro-5H-benzocyclohepten-2-yl]-N*4*-[2-(propane-2-sulfonyl)-phenyl]-pyrimidine-2,4-diamine]
- pIC50 [1, 3]: > 7.00
- pIC50 [2, 4]: 5.00 to 6.00

Structure (SMILES): CCN1CC(=O)N(CC)c2cc(Nc3ncc(Cl)c(N[C@@H]4CCCC[C@H]4NS(C)(=O)=O)n3)c(OC)cc2C1 [Example 736, N,N-{(1R,2R)-2-[5-Chloro-2-(1,4-diethyl-7-methoxy-2-oxo-2,3,4,5-tetrahydro-1H-benzo[e][1,4]diazepin-8-ylamino)-pyrimidin-4-ylamino]-cyclohexyl}-methanesulfonamide]
- pIC50 [1, 3]: 6.00 to 7.00
- pIC50 [2, 4]: < 5.00

Structure (SMILES): CC(C)(F)CN1CCc2ccc(Nc3ncc(Cl)c(N[C@@H]4CCCC[C@H]4NS(C)(=O)=O)n3)cc2CC1 [Example 40, N-((1R,2R)-2-{5-Chloro-2-[3-(2-fluoro-2-methyl-propyl)-2,3,4,5-tetrahydro-1H-benzo[d]azepin-7-ylamino]-pyrimidin-4-ylamino}-cyclohexyl)-methanesulfonamide]
- pIC50 [1, 5]: > 7.00
- pIC50 [2, 6]: 5.00 to 6.00

Structure (SMILES): CCN1C(=O)CCCc2c1ccc(Nc1ncc(Cl)c(Nc3ccccc3-c3ncccc3C)n1)c2OC [Example 984, 7-{5-Chloro-4-[2-(3-methyl-pyridin-2-yl)-phenylamino]-pyrimidin-2-ylamino}-1-ethyl-6-methoxy-1,3,4,5-tetrahydro-benzo[b]azepin-2-one]
- pIC50 [1, 3]: > 7.00
- pIC50 [2, 4]: < 5.00

More lines, now with the values ahead:

- pIC50 [1, 9]: > 7.00
- pIC50 [2, 10]: 5.00 to 6.00
Structure (SMILES): COCCN1CCc2ccc(Nc3ncc(Cl)c(Nc4c(F)cccc4OC4CCOCC4)n3)cc2CC1 [Example 1282, 5-Chloro-N(4)-[2-fluoro-6-(tetrahydro-pyran-4-yloxy)-phenyl]-N(2)-[3-(2-methoxy-ethyl)-2,3,4,5-tetrahydro-1H-3-benzazepin-7-yl]-pyrimidine-2,4-diamine]

- pIC50 [1, 7]: 5.00 to 6.00
- pIC50 [2, 8]: 5.00 to 6.00
Structure (SMILES): O=C1CCCc2ccc(Nc3ncc(Cl)c(Nc4c(F)cccc4C(=O)NCC4CC4)n3)cc2N1 [Example 1712, 2-[5-Chloro-2-(2-oxo-2,3,4,5-tetrahydro-1H-benzo[b]azepin-8-ylamino)-pyrimidin-4-ylamino]-N-cyclopropylmethyl-3-fluoro-benzamide]

- pIC50 [1, 7]: > 7.00
- pIC50 [2, 8]: 5.00 to 6.00
Structure (SMILES): CCN1CCCOc2cc(Nc3ncc(Cl)c(Nc4ccc(N5CCOCC5)cc4OC)n3)ccc21 [Example 1694, 5-Chloro-N*2*-(9-ethyl-6,7,8,9-tetrahydro-5-oxa-9-aza-benzocyclohepten-3-yl)-N*4*-(2-methoxy-4-morpholin-4-yl-phenyl)-pyrimidine-2,4-diamine]

- pIC50 [1, 9]: > 7.00
- pIC50 [2, 10]: 6.00 to 7.00
Structure (SMILES): C#CCNC(=O)c1cccc(F)c1Nc1nc(Nc2ccc3c(c2)OCCCN3C(=O)OCCOC)ncc1Cl [Example 1437, 3-[5-Chloro-4-(2-fluoro-6-prop-2-ynylcarbamoyl-phenylamino)-pyrimidin-2-ylamino]-7,8-dihydro-6H-5-oxa-9-aza-benzocycloheptene-9-carboxylic acid 2-methoxy-ethyl ester]

- pIC50 [1, 9]: > 7.00
- pIC50 [2, 10]: > 7.00
Structure (SMILES): CCN1C(=O)CCCc2ccc(Nc3ncc(Cl)c(Nc4ccccc4OCC#N)n3)cc21 [Example 1230, {2-[5-Chloro-2-(1-ethyl-2-oxo-2,3,4,5-tetrahydro-1H-1-benzazepin-8-ylamino)-pyrimidin-4-ylamino]-phenoxy}-acetonitrile]

- pIC50 [1, 5]: > 7.00
- pIC50 [2, 6]: > 7.00
Structure (SMILES): CNC(=O)c1ccccc1Nc1nc(Nc2ccc3c(c2)CCN(CCF)CC3)ncc1Cl [Example 38, 2-{5-Chloro-2-[3-(2-fluoro-ethyl)-2,3,4,5-tetrahydro-1H-benzo[d]azepin-7-ylamino]-pyrimidin-4-ylamino}-N-methyl-benzamide]

- pIC50 [1, 5]: > 7.00
- pIC50 [2, 6]: > 7.00
Structure (SMILES): CNC(=O)c1ccccc1Nc1nc(Nc2ccc3c(c2)CNCCN3C)ncc1Cl [Example 420, 2-[5-Chloro-2-(1-methyl-2,3,4,5-tetrahydro-1H-benzo[e][1,4]diazepin-7-ylamino)-pyrimidin-4-ylamino]-N-methylbenzamide]
